Reference: ChEMBL document CHEMBL1201862, “PubChem BioAssay data set” (2004)
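Cells were grown in 96-well plates and exposed to each compound for 48 hours at five concentrations; endpoints were interpolated linearly between bracketing concentrations, or set to the highest concentration if not reached. GI50: concentration for 50% inhibition of growth.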 Activity calls are given as the source filed them. No stated cut-off is given here; in the data, active = GI50 up to about 1.1 µM and inactive = higher.

How the values were obtained:
Assay in all cases: NCI-60 cell line screen, 48 h
EKVX = system: EKVX
SF-295 = system: SF-295
HCT-116 = system: HCT-116
UACC-257 = system: UACC-257
NCI-H226 = system: NCI-H226
U-251 = system: U-251
SK-MEL-5 = system: SK-MEL-5
KM-20L2 = system: KM-20L2
HCC 2998 = system: HCC 2998
SNB-75 = system: SNB-75
SK-MEL-2 = system: SK-MEL-2
OVCAR-3 = system: OVCAR-3
OVCAR-4 = system: OVCAR-4
COLO 205 = system: COLO 205
IGROV-1 = system: IGROV-1
HL-60 = system: HL-60
CCRF-CEM = system: CCRF-CEM
A498 = system: A498

Measured: GI50

NCCCOCC(=O)O
inactive: EKVX > 100 µM | SF-295 > 100 µM | HCT-116 > 100 µM | UACC-257 > 100 µM | NCI-H226 > 100 µM | U-251 > 100 µM | SK-MEL-5 > 100 µM | KM-20L2 > 100 µM | HCC 2998 > 100 µM | SNB-75 > 100 µM | SK-MEL-2 > 100 µM | OVCAR-3 > 100 µM | OVCAR-4 > 100 µM | COLO 205 > 100 µM | IGROV-1 > 100 µM

C=CCNC(=O)NCCCC(NC(C)=O)C(=O)NCc1ccccc1 (stereo not given)
inactive: EKVX > 100 µM | SF-295 > 100 µM | UACC-257 > 100 µM | NCI-H226 > 100 µM | U-251 > 100 µM | SK-MEL-5 > 100 µM | HL-60 > 100 µM | KM-20L2 > 100 µM | CCRF-CEM > 100 µM | SNB-75 > 100 µM | SK-MEL-2 > 100 µM | OVCAR-3 > 100 µM | OVCAR-4 > 100 µM | A498 > 100 µM | COLO 205 > 100 µM | IGROV-1 > 100 µM

CN1C(=O)N(C)C2(O)c3ccccc3C(=O)C12O (stereo not given)
inactive: EKVX > 100 µM | SF-295 > 100 µM | HCT-116 > 100 µM | UACC-257 > 100 µM | NCI-H226 > 100 µM | U-251 > 100 µM | SK-MEL-5 > 100 µM | KM-20L2 > 100 µM | CCRF-CEM > 100 µM | HCC 2998 > 100 µM | SNB-75 > 100 µM | SK-MEL-2 > 100 µM | OVCAR-3 > 100 µM | OVCAR-4 > 100 µM | A498 > 100 µM | COLO 205 > 100 µM | IGROV-1 > 100 µM

OCC(O)C(OC1OC(CO)C(O)C(O)C1O)c1nn(-c2ccccc2)c2nc3cc(Cl)ccc3nc12 (stereo not given)
inactive: EKVX > 100 µM | SF-295 > 100 µM | HCT-116 > 100 µM | UACC-257 > 100 µM | U-251 > 100 µM | KM-20L2 > 100 µM | CCRF-CEM > 100 µM | HCC 2998 > 100 µM | SNB-75 > 100 µM | OVCAR-3 > 100 µM | OVCAR-4 > 100 µM | A498 > 100 µM

CC(C)(CN1CCCCC1)C(=O)CC(SCCS(=O)(=O)O)c1ccc(Br)cc1 (stereo not given)
inactive: EKVX 2.92 µM | SF-295 5.12 µM | HCT-116 1.67 µM | UACC-257 3.17 µM | NCI-H226 3.26 µM | U-251 1.56 µM | SK-MEL-5 1.8 µM | KM-20L2 1.58 µM | HCC 2998 2.7 µM | SNB-75 2.07 µM | SK-MEL-2 2.32 µM | OVCAR-4 2.03 µM | A498 2.1 µM | COLO 205 1.45 µM | IGROV-1 1.97 µM
